# Experimental data published in patent publication US20070053950A1, “Composition of polymer microcapsules of biocide for coating material” (priority 2005, published 2007).
# Assays:
# Format in all cases: cell-based
# [1] = test system: fungal strain Aspergillus niger (NRRL337); assay: Filter paper bioassay, antifungal activity of biocide dispersed in paint (zone of inhibition); settings: sample taken after 0 days of dispersion
# Protocol: Microcapsules of Zinc Pyrithione and unencpasulated Zinc Pyrithione are dispersed in paint such that the concentration of Zinc Pyrithione is around 5 wt % based on weight of paint and taken for analysis after 0 days, 12 days and 30 days of dispersion period. The antifungal activity of all the composition samples is indicated by zone of inhibition that is developed around the filter paper discs against the vegetative growth after the spore germination. The zone of inhibition is measured after 2 days and 100 days after the day on which samples are taken for filter paper bioassay.
# [2] = test system: Oscillatoria tenius; assay: Filter paper bioassay, antialgal activity of biocide dispersed in paint; settings: around 5 wt % Irgarol in paint; taken after 0, 15 and 30 days of dispersion; even after 100 days
# Text: (§1) W. et.al., Amer. J. Clin. Pathol., 45 (1966) p 493-496 and Thomberry, H. H. Phytopathology 40 (1950) p 419-420). […] The antifungal activity of all the composition samples is indicated by zone of inhibition that is developed around the filter paper discs against the vegetative growth after the spore germination. […] Similar type of results are obtained when microcapsules stored in paint for 12 days and 30 days are taken for such biocidal analysis. The antialgal activity of microencapsulated Irgarol and unencapsulated Irgarol against algal strains (Oscillatoria tenius and Chlorella fusca) is assessed by filter paper bioassay by method as described above for fungal activity. Unencpasulated Irgarol and microcapsules of Irgarol are dispersed in paint such that the concentration of Irgarol is around 5 wt % based on weight of paint and taken for analysis after 0 days, 15 days and 30 days of dispersion period.
# [3] = test system: Chlorella fusca; assay: as above; settings: around 5 wt % Irgarol in paint; taken after 0, 15 and 30 days of dispersion; even after 100 days
# Text: as §1
Compound,"Zone of inhibition (mm) (after 2 days) A ([1]; around 5 wt % Zinc Pyrithione in paint, zone measured after 2 days)","Zone of inhibition (mm) (after 100 days) B ([1]; around 5 wt % Zinc Pyrithione in paint, zone measured after 100 days)","% Reduction in inhibition zone C = [(A − B) × 100]/A ([1]; around 5 wt % biocide in paint, from 2 days to 100 days) [%]",inhibitory activity against algal strain [2],inhibitory activity against algal strain [3]
Zinc Pyrithione [Unencapsulated Zinc Pyrithione],41,32,21.9,–,–
"CSc1nc(NC2CC2)nc(NC(C)(C)C)n1 [unencapsulated irgarol, Irgarol]",–,–,–,very strong inhibitory activity,very strong inhibitory activity
